Measurements from ChEMBL document CHEMBL1155407, “Synthesis and evaluation of duocarmycin SA analogs incorporating the methyl 1,2,8,8a-tetrahydrocyclopropa[c]oxazolo[2,3-e]indol-4-one-6-carboxylate (COI) alkylation subunit” (Bioorg Med Chem Lett, 2010).
Activity calls are given as the source filed them. The calls are words filed in the database; no cut-off is given here.

Experiments:
L1210 = assay: Cytotoxicity against mouse L1210 cells; assay type: functional, cell-based
Nucleic Acid [1] = assay: Alkylation of cell free 32p end labeled double stranded w794 DNA at 10 uM after 48 hrs by PAGE and autoradiography; assay type: nucleic-acid assay
Nucleic Acid [2] = assay: Alkylation of cell free 32p end labeled double stranded w794 DNA at 100 uM after 48 hrs by PAGE and autoradiography; assay type: nucleic-acid assay

Row | SMILES | IC50 (L1210) | Activity (Nucleic Acid [1]) | Activity (Nucleic Acid [2])
1 | COC(=O)c1nc2c(O)cc3c(c2o1)C(CCl)CN3C(=O)OC(C)(C)C (stereo unspecified) | 550 nM |  | 
2 | COC(=O)c1cc2c([nH]1)C(=O)C=C1N(C(=O)c3cc4cc(OC)c(OC)c(OC)c4[nH]3)C[C@H]3C[C@]123 |  | Active | inactive
3 | COC(=O)c1nc2c(O)cc3c(c2o1)C(CCl)CN3C(=O)c1cc2cc(OC)c(OC)c(OC)c2[nH]1 (racemic) | 5.4 nM | Active | inactive
